These results are taken from patent US7442513B2, “Method of screening for agents that modulate a homer signaling pathway” (The Johns Hopkins University, priority 2003, dated 2008).

Assay [1] deals with mGluR5 binding to Homer. Description: mGluR5 binding to GST-Homer after treating mGluR5-expressing HEK293 cells with PPIase inhibitors (pull-down, western blot). Type of assay: cell-based. The following applies: for effect on mGluR5 binding to GST-Homer: HEK293 cells expressing mGluR5, 1 micromolar in medium, differing intervals. Here is the method: HEK293 cells were transfected with pRK5-mGluR5. 1 micromolar FK506 was added to the medium for differing intervals prior to harvesting and preparation of lysates in the indicated buffer, which include inhibitors of phosphatases and proteases. Lysates were mixed with glutathione agarose beads loaded with GST-Homer 3 EVH1 domain for 1 hr at 4 C. mGluR5 that bound to Homer was then analyzed by western blot. Lysates were also assayed to confirm expression of mGluR5 (lower panel). Note the increase in mGluR5 that binds to Homer from lysates of cells treated for 3 hrs or longer with FK506.
If PPIases regulate the conformational state of the mGluR5, it was anticipated that PPIase inhibitors would alter the ability of the mGluR5 to bind to Homer. To examine this hypothesis, Homer was expressed as a bacterial fusion protein with glutathione S-transferase (GST) and loaded the protein on a glutathione agarose bead. These binding assays are identical to those used previously to document the ligand consensus sequence in mGluR5 (Tu et al., 1998), and for analysis of the binding surfaces of Homer (Beneken et al., 2000).
Cells were treated for different times with PPIase inhibitors and then harvested in buffer containing protease and phosphatase inhibitors and 1% Triton detergent. Soluble lysates were then mixed with beads loaded with GST-Homer incubated for 1 hr at 4° C., washed several times and proteins eluted with SDS loading buffer. […] Increased binding was detected by 3 hrs and remained elevated for 24 hrs.
(Immunoblotting shows a protein as a band on a membrane.)

Assay [2] has as its system TrpC1 binding to Homer1EVH1. Description: TrpC1 binding to GST-Homer1 EVH1 after treating TrpC1-expressing HEK293 cells with FK506. It counts as cell-based. The following applies: 150 nM. The method, then:
HEK293 cells that transiently express TrpC1 were treated with FK506 for indicted time prior to preparation of lysates and binding to GST-Homer. Note that FK506 treatment increases TrpC1 binding to Homer.
An observation from the Homer-TrpC1 binding data remained enigmatic. […] Additionally, certain point mutants of the C-terminal Homer ligand increase binding to Homer. […] The possibility that an FKBP homologue might bind mammalian TrpC1 and impact the binding of Homer was explored. As a first test of this hypothesis, the consequence of treating cells expressing TrpC1 with FK506, and then testing TrpC1 binding to GST-Homer was examined. HEK293 cells were transfected with wt TrpC1 and treated with 150 nM FK506 for times ranging from 15 min to 24 hrs. Cells lysates were prepared in 1% Triton and mixed with GST-Homer1 EVH1 and bound TrpC1 assayed by western blot. Lysates were also assayed to compare expression in each of the samples. […] This effect was detected as early as 30 min after addition of FK506 and persisted for 24 hrs. A peak of increased binding appeared at ˜6hrs. […] It was concluded that FK506 increases the binding of TrpC1 to Homer at a dose that is known to the relevant for FKBP.

Assay [3] concerns TrpC1 binding to Homer. Description: TrpC1 binding to GSTHomer after treating lysates of TrpC1-expressing HEK293 cells. Particulars: for effect on TrpC1 binding to Homer: lysates treated with indicated concentrations. Here is the method:
TrpC1 was transiently expressed in HEK293 cells and lysates were treated with the indicated concentrations of FK506, GPI1046, cyclosporin A or aniracetam (negative control) and assayed for TrpC1 binding to GSTHomer. TrpC1 migrates as both a monomer and dimer. Note that FK506, GPI1046 and cyclosporin A (but not aniracetam) treatment results in increased TrpC1 binding to Homer.

Assay [4] has as its target T1, TrpC1 binding to GST-FKBP52 (Homo sapiens, UniProt Q02790).
T1 construct: expressed in transfected cells; host or cells: HEK293 cell lysate (TrpC1)
T1 sequence (Q02790 1-459): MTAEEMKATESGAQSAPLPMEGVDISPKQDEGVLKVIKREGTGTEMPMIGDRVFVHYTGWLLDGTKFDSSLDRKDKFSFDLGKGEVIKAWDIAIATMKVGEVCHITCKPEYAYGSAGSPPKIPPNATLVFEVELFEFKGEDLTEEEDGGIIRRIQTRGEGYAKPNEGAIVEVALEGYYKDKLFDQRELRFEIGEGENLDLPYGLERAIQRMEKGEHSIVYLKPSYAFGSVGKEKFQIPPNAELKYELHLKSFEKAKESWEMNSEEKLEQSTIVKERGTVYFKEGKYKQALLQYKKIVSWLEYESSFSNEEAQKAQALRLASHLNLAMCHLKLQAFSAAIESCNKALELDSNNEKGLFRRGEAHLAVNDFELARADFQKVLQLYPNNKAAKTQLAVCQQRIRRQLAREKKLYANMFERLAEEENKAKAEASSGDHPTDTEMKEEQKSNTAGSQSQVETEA
Description: TrpC1 binding to GST-FKBP52 after pretreating cell lysates with PPIase inhibitors. An excerpt:
To further test this hypothesis, the binding of TrpC1 to GST-FKBP12 or GST-FKBP52 was examined. Also, the effect of pretreating cell lysates with FK506, GPI-1046, cyclosporin A or the control agent aniracetam (structurally similar to GPI-1946) was examined. The notion being that dissociation of endogenous FKBP would increase the availability of TrpC1 to bind GST-FKBP in vitro. The FK506 might also be expected to bind to GST-FKBP but because this protein is highly concentrated on the bead and is in vast excess to cellular FKBP, the net consequence of drug treatment would be increased binding of TrpC1 to GST-FKBP. In these assays, TrpC1 bound to FKBP52 (FIG. 15), but not to FKBP12. Binding of TrpC1 to GST-FKBP52 was increased by treatment with both FK506 and GPI1046. The effect of these agents was particularly robust for the dimeric TrpC1 species and was detected with 100 nM FK506 or GPI1046. These studies confirmed that TrpC1 is bound by Homer and FKBP52, and that treatment of cell lysates or cells with drugs that inhibit rotamase activity and dissociate rotamases from their target proteins, result in enhanced binding of TrpC1 to both Homer (FIG. 14) and FKBP52 (FIG. 15).

[5] abbreviates: 1 micromolar, HEK293 cells expressing mGluR5.

As to `C=CC[C@@H]1/C=C(\C)C[C@H](C)C[C@H](OC)[C@H]2O[C@@](O)(C(=O)C(=O)N3CCCC[C@H]3C(=O)O[C@H](/C(C)=C/[C@@H]3CC[C@@H](O)[C@H](OC)C3)[C@H](C)[C@@H](O)CC1=O)[C@H](C)C[C@@H]2OC` [FK506], the “time for which mGluR5 binding remained elevated” value in assay [1] (setting [5]) came to 24 h. In addition, in assay [2], the “earliest time at which increased TrpC1 binding was detected” value stood at 30 min, the “time for which increased TrpC1 binding persisted” value is 24 h and the “time of peak of increased TrpC1 binding” value was roughly 6 h.

For `CCC(C)(C)C(=O)C(=O)N1CCC[C@H]1C(=O)OCCCc1cccnc1` [GPI1046], in assay [3] (10 nM), the “effect on TrpC1 binding to Homer at 10 nM” value is listed as “potent enhancement”. Further, in assay [3] (doses higher than 10 nM or longer times), the “effect on TrpC1 binding to Homer with higher doses or longer times” value is recorded as “decreases”. For the same compound, the “effect on TrpC1 binding to Homer” value in assay [3] is on record as “increased”; in assay [3] (listed as GPI 1046) it was “enhanced”. The “mGluR5 binding after 12 or 24 hrs of treatment” value in assay [1] (1 micromolar, 12 or 24 hrs) is reported as “decreased”. In assay [1] (1 micromolar, HEK293 cells), the “effect on expression of mGluR5 in lysates” value is listed as “did not significantly alter”. The “treatment time of peak mGluR5 binding” value in assay [1] (setting [5]) is no more than 3 h. In assay [1] (setting [5]), the “treatment time within which mGluR5 binding increased” value is on record as no more than 30 min. Also, the “effect on mGluR5 binding to GST-Homer” value in assay [1] is recorded as “time-dependent increase”; in assay [1] (listed as GPI 1046), “effective in increasing”. Besides, the “concentration at which increased TrpC1 binding to GST-FKBP52 was detected” value in assay [4] (dimeric TrpC1 species, pretreated lysates) is 100 nM. Moreover, the “effect on binding of TrpC1 to GST-FKBP52” value in assay [4] (pretreated cell lysates) was “increased”.

Turning to `COc1ccc(C(=O)N2CCCC2=O)cc1` [aniracetam], the “effect on TrpC1 binding to Homer” value in assay [3] is reported as “not”.
